# Results from patent publication US20140031217A1, “HERBICIDAL COMPOSITIONS COMPRISING 4-AMINO-3-CHLORO-5-FLUORO-6-(4-CHLORO-2-FLUORO-3-METHOXYPHENYL)PYRIDINE-2-CARBOXYLIC ACID OR A DERIVATIVE THEREOF AND AUXIN TRANSPORT INHIBITORS” (DOW AGROSCIENCES LLC, priority 2012, published 2014).
# How the values were obtained:
# [1] = test system: BRAPP; experiment: Postemergence foliar-applied greenhouse weed control, BRAPP; assay type: in vivo, Brachiaria platyphylla (Griseb.) Nash
# From the text: (§1) Seeds or nutlets of the desired test plant species were planted in a soil matrix prepared by mixing a loam or sandy loam soil (e.g., 28.6 percent silt, 18.8 percent clay, and 52.6 percent sand, with a pH of about 5.8 and an organic matter content of about 1.8 percent) and calcareous grit in an 80 to 20 ratio. The soil matrix was contained in plastic pots with a volume of 1 quart and a surface area of 83.6 square centimeters (cm^2). When required to ensure good germination and healthy plants, a fungicide treatment and/or other chemical or physical treatment was applied. The plants were grown for 8-22 days in a greenhouse with an approximate 14 h photoperiod which was maintained at about 29° C. during the day and 26° C. during the night. Nutrients (Peters Excel® 15-5-15 5-Ca 2-Mg and iron chelate) were applied in the irrigation solution as needed and water was added on a regular basis. Supplemental lighting was provided with overhead metal halide 1000-Watt lamps as necessary. The plants were employed for testing when they reached the first through fourth true leaf stage.
# (§2) Treatments consisted of the acid or esters of 4-amino-3-chloro-5-fluoro-6-(4-chloro-2-fluoro-3-methoxy-phenyl) pyridine-2-carboxylic acid (Compound A), each formulated as an SC (suspension concentrate), and various herbicidal components alone and in combination. Forms of compound A were applied on an acid equivalent basis.
# (§3) Other herbicidal components were applied on an active ingredient basis and included auxin transport inhibiting (ATI) herbicides chlorflurenol (technical material), chlorflurenol-methyl (technical material), diflufenzopyr (technical material), diflufenzopyr sodium (technical material), flurenol-methyl (technical material) and naptalam (technical material).
# (§4) Treatment requirements were calculated based upon the rates being tested, the concentration of active ingredient or acid equivalent in the formulation, and a 12 mL application volume at a rate of 187 L/ha.
# (§5) For treatments comprised of formulated and technical compounds, weighed amounts of the technical materials were placed individually in 25 mL glass vials and dissolved in a volume of 97:3 v/v acetone/DMSO to obtain 12× stock solutions, and measured amounts of the formulated compounds were placed individually in 25 mL glass vials and diluted in a volume of 1.5% (v/v) crop oil concentrate or water to obtain 12× stock solutions. […] Application solutions were prepared by adding an appropriate amount of each stock solution (e.g., 1 mL) and diluted to the appropriate final concentrations with the addition of an appropriate amount of an aqueous mixture of 1.5% (v/v) crop oil concentrate so that the final spray solutions contained 1.25% (v/v) crop oil concentrate. When required, additional water and/or 97:3 v/v acetone/DMSO was added to individual application solutions so that the final acetone and DMSO concentrations of the application solutions being compared were 8.1% and 0.25%, respectively.
# (§6) All stock solutions and applications solutions were visually inspected for compound compatibility prior to application. Spray solutions were applied to the plant material with an overhead Mandel track sprayer equipped with an 8002E nozzle calibrated to deliver 187 L/ha over an application area of 0.503 m^2 at a spray height of 18 to 20 inches (46 to 50 cm) above average plant canopy height. Control plants were sprayed in the same manner with the solvent blank.
# (§7) The treated plants and control plants were placed in a greenhouse as described above and watered by sub-irrigation to prevent wash-off of the test compounds. After approximately 3 weeks, the condition of the test plants as compared with that of the untreated plants was determined visually and scored on a scale of 0 to 100 percent where 0 corresponds to no injury or growth inhibition and 100 corresponds to complete kill. […]
# [2] = test system: ECHCG; experiment: Postemergence foliar-applied greenhouse weed control, ECHCG; assay type: in vivo, Echinochloa crusgalli (L.) Beauv.; details: 20 DAA
# From the text: as §1, §2, §3, §4, §5, §6, §7
SMILES,"Visual Weed Control (%) Obs ([1]; 21 DAA, 8.75 gae/ha) [%]",Visual Weed Control (%) Obs ([2]; 4.38 gae/ha) [%],Visual Weed Control (%) Obs ([2]; 8.75 gae/ha) [%],"Visual Weed Control (%) Obs ([1]; 21 DAA, 4.38 gae/ha) [%]","Visual Weed Control (%) Obs ([1]; 21 DAA, 17.5 gae/ha) [%]","Visual Weed Control (%) Obs ([1]; 22 DAA, 8 gae/ha) [%]","Visual Weed Control (%) Obs ([1]; 22 DAA, 16 gae/ha) [%]"
"COc1c(Cl)ccc(-c2nc(C(=O)O)c(Cl)c(N)c2F)c1F [Compound A Acid, 4-amino-3-chloro-6-(4-chloro-2-fluoro-3-methoxyphenyl)-5-fluoropyridine-2-carboxylic acid]",60,60,80,,,,
COc1c(Cl)ccc(-c2nc(C(=O)OCc3ccccc3)c(Cl)c(N)c2F)c1F [Compound A Benzyl Ester],75,60,,70,95,35,80
